Assay results taken from patent publication US20090074885A1, “Reversible Hydrophobic Modification of Drugs for Improved Delivery to Cells” (Roche Madison Inc., priority 2003, published 2009).
Like-named read-outs stand apart in the source and are kept apart here.

Assays:
Hepa 1-6 = assay: Uptake of PI mixed with hydrophobic derivative (membrane damage test), Hepa 1-6; assay type: cell-based, mouse; conditions: compared to PI alone
Protocol: (§1) For experiments conducted with IV, the cells were plated on 6-well plates with cover slips. Following treatment as above, the cover slip was immediately removed and inverted over 1 drop of media for imaging, or the cells were incubated for 1 h prior to removal of the cover slip and imaging. Imaging was conducted on an Axioplan2 fluorescent microscope (Zeiss) and the same fields were imaged with phase contrast illumination, in the rhodamine fluorescence channel (λex=BP 450/12, λem=LP 590 nm filter set), and in the fluorescein fluorescent channel (λex=BP 546/90, λem=LP 515 nm filter set). IV was also mixed with PI and then delivered to SK-OV-3 cells, and the cells were imaged as before. In one protocol, equal amounts of IV (15.0 mM in DMSO) and PI (15.0 mM in DMSO) were combined and the resulting solution was added to cells via the mixing chamber. In a second method, PI was taken up in the ITG solution (0.748 mM) and mixed with IV (7.48 mM in DMSO) in the mixing chamber. Similarly, V (15 mM and 30 mM in DMSO) was mixed with PI and delivered to Hepa 1-6 and SK-OV-3 cells using the second method. The cells were imaged as before following 30 sec-4 min exposure to the drug solution.

[1] = Hydrolysis of V monitored by reaction of liberated melphalan with fluorescamine; assay type: physicochemical; conditions: pH 6.0; for Half-life: extrapolated to pure buffer (100 mol % H2O)
Protocol: (§2) Analysis of prodrug lability. The prodrugs were tested for their rate of hydrolysis at pH 6.0, 7.2 and 8.5 using fluorescent spectroscopy. Lability studies for C12CON-PI and RRH-PI (rapidly reversible hydrophobic-PI) derivatives were conducted on a Cary Eclipse Fluorescence Spectrophotometer (Varian Inc.).
Alternatively, to solutions of fluorescamine (857 μM in DMSO) were added various amounts of buffer (20 μL, 30 μL, 40 μL, 50 μL, and 70 μL of 100 mM MES buffer, pH 6.0) followed by melphalan or V (249 μM final concentration in DMSO). The fluorescence of the solution (λex=380 nm, λem=464 nm, excitation and emission slit width=5 nm, and emission PMT=600V) was assayed as a function of time (40 min). At each buffer concentration the reaction of fluorescamine and melphalan was more rapid than hydrolytic breakdown of V.
(§3) The resulting curves were normalized for intensity and fit to an exponential equation (Origin) to determine kdetermined for each solution. The kdetermined for each compound at appropriate pH were plotted against the mol % of H2O, and the best fit line was solved for kbuffer for 100 mol % H2O. These derived kbuffer values were used to determine the half-life of the prodrug in pure buffer according to the equation t1/2=1n2/k.

[2] = Trypan blue assay for membrane disruption; assay type: cell-based
[3] = system: MC38 (mouse colon carcinoma); assay: WST cytotoxicity assay, MC38; assay type: cell-based; conditions: MC38, 4 min drug exposure, WST 48 h after
Protocol: Antiproliferative/Cytotoxic in vitro studies on PI, RRH-PI prodrugs, melphalan, and C12PMMA-melphalan. In vitro cytotoxicity testing was conducted on Hepa 1-6 (mouse hepatoma), SK-OV-3 (human ovarian carcinoma), and MC38 (mouse colon carcinoma) cells using a tetrazolium based assay (WST, Dojindo Molecular Technologies). For the WST assay, Hepa 1-6 (2.0×10^5 cells well), SK-OV-3 (7.5×10^5 cells well), and MC38 (8.5×10^5 cells well) were seeded in 1000 μL media into 12-well plates 24 h prior to testing (starting confluency ˜50%). Following removal of media, drug/prodrug solution was added drop-wise to quadruplicate wells, using the mixing chamber. Effective drug concentrations were calculated from the amount of drug added in the total volume of OS and aqueous solution. Following 4 min of drug solution exposure, the solution was removed, and 1000 μl fresh complete media was added to each well. After the cells were incubated for 24-48 h, WST-1 (20 μl of a 5 mM solution in PBS) and N-methylphenazonium methyl sulfate (PMS, 20 μl 0.2 mM solution in PBS) were added and the cells were incubated for 1-4 h. […] Following incubation, 100 μl of sample was transferred to quadruplicate wells on a 96-well plate, and the absorbance (438 nm) values were measured on a SPECTRAmax Plus^384 microplate spectrophotometer (Molecular Devices Corporation). […]

[4] = system: Hepa 1-6 (mouse hepatoma); assay: WST cytotoxicity assay, Hepa 1-6; assay type: cell-based
Protocol: (§4) Antiproliferative/Cytotoxic in vitro studies on PI, RRH-PI prodrugs, melphalan, and C12PMMA-melphalan. In vitro cytotoxicity testing was conducted on Hepa 1-6 (mouse hepatoma), SK-OV-3 (human ovarian carcinoma), and MC38 (mouse colon carcinoma) cells using a tetrazolium based assay (WST, Dojindo Molecular Technologies). For the WST assay, Hepa 1-6 (2.0×10^5 cells well), SK-OV-3 (7.5×10^5 cells well), and MC38 (8.5×10^5 cells well) were seeded in 1000 μL media into 12-well plates 24 h prior to testing (starting confluency ˜50%). Following removal of media, drug/prodrug solution was added drop-wise to quadruplicate wells, using the mixing chamber. Effective drug concentrations were calculated from the amount of drug added in the total volume of OS and aqueous solution. Following 4 min of drug solution exposure, the solution was removed, and 1000 μl fresh complete media was added to each well. After the cells were incubated for 24-48 h, WST-1 (20 μl of a 5 mM solution in PBS) and N-methylphenazonium methyl sulfate (PMS, 20 μl 0.2 mM solution in PBS) were added and the cells were incubated for 1-4 h. For testing with MC38 cells, the amounts of WST-1 and PMS were doubled. Following incubation, 100 μl of sample was transferred to quadruplicate wells on a 96-well plate, and the absorbance (438 nm) values were measured on a SPECTRAmax Plus^384 microplate spectrophotometer (Molecular Devices Corporation). Data represents the mean A438 values of 16 wells with standard deviation, corrected for media contribution, and normalized against cells in media with no drug/prodrug treatment (reported as % cell viability±standard deviation).
(§5) The concentration of drug (μM) that is required for 50% inhibition in vitro is reported as the IC50. The reported values were calculated from the best fit line (Excel) for a plot of effective drug concentration against % cell viability, and include the r^2 value. The reported IC50 values for multiple RRH-PI plots are reported as IC50 (μM)±standard deviation.

[5] = system: SK-OV-3 (human ovarian carcinoma); assay: WST cytotoxicity assay, SK-OV-3; assay type: cell-based
Protocol: as §4, §5

SK-OV-3 cells = assay: Uptake of PI mixed with hydrophobic derivative (membrane damage test), SK-OV-3; assay type: cell-based, human; conditions: compared to cells treated with PI alone
Protocol: as §1

[6] = Dynamic light scattering particle size; assay type: physicochemical; conditions: following mixing with ITG through mixing chamber
Protocol: (§6) Light Scattering analysis of prodrugs. Particle size was determined by dynamic light scattering on a Zeta Plus (Zeta Potential Analyzer, Brookhaven Instrument Corporation, λ 533 nm, 90°), and results are reported as the size of the most abundant particle (range of particle sizes, counts sec^−1). Fluorescent compounds were also analyzed for particles qualitatively, by measuring for light scattering on a Cary Eclipse Fluorescence Spectrophotometer (Varian Inc.), with λex=λem (300-800 nm, 90° detection). The presence of particles in solution results in an increase in signal detection at 90°. PI and RRH-PI prodrugs were 7.48 mM in DMSO. Melphalan and V were 50 mM in DMSO. The drug/prodrug solutions were mixed and diluted with ITG through the mixing chamber (40 μl OS and 400 μl ITG), and analyzed immediately.

[7] = system: B16 murine melanoma cells; assay: CellTiter-Glo luminescent cell viability assay; assay type: cell-based; conditions: 10 min drug solution exposure, 3 h in media, 24 h culture; up to 112 μl delivery solution per well
Protocol: Cells were seeded at 1×10^4 cells/well in 100 μl of media into 96-well plates on day 0 and cultured for 24 h prior to addition of drug. […] Following 10 min of drug solution exposure, 100 μl of fresh media was added to each well and incubated for 3 h. Drug-containing media was replaced with 100 μl of fresh media and cultured for and additional 24 h.

[8] = Qualitative 90° light scattering for particles; assay type: physicochemical; conditions: relative to ITG or PI in ITG
Protocol: as §6

[9] = Analysis of prodrug lability (rate of hydrolysis) of PI derivatives by fluorescent spectroscopy; assay type: physicochemical; conditions: extrapolated to pure buffer (100 mol % H2O)
Protocol: as §2
To solutions of PI and RRH-prodrugs of PI (7.48 μM in DMSO) were added various amounts of buffer (25 μL, 50 μL, and 100 μL of 20 mM Hepes buffer) at different pH. Upon cleavage of the hydrophobic modification and regeneration of PI, the fluorescence of the solution increased (λex=493 nm, λem=647 nm, excitation and emission slit width=5 nm, and emission PMT=600V) and was assayed as a function of time (20 min).
as §3

[10] = system: SK-OV-3 (human ovarian carcinoma) cells; assay: In vitro cellular uptake by fluorescence microscopy, SK-OV-3; assay type: cell-based; conditions: fluorescein channel
Protocol: In Vitro cellular uptake of PI, RRH-PI compounds, and IV evaluated by fluorescence measurements. […] Adherent cells were plated at 2.5×10^5 cells/well on 6-well plates 24 h prior to testing. The growth media was removed from individual wells and the drug/prodrug was immediately added to the well with the mixing chamber. […] After 30 sec the drug solution was removed (aspirated) and 2 ml complete media was added to the cells. Experiments conducted with prodrug that was hydrolyzed prior to application to the cells followed a similar protocol, however the combined solution obtained after passing through the mixing chamber was collected and allowed to sit at ambient temperature for 5 min prior to application on the cells. Experiments conducted with Calcein AM (Invitrogen, 100 μl of 20 μM solution in complete media) followed a similar protocol for drug treatment (4 min treatment). Experiments conducted with SYTOX Green (Invitrogen) followed a similar protocol for drug treatment. […] Each condition was repeated in 2 or 3 wells, and the cells were immediately examined by microscopy. Fluorescent microscopy studies were conducted with a three laser LSM 510 confocal microscope, an Axiovert S100 fluorescent microscope, or an Axioplan2 fluorescent microscope (all Zeiss) equipped with filter sets for the rhodamine fluorescence channel (λex=BP 450/12, λem=LP 590 nm filter set) and the fluorescein fluorescent channel (λex=BP 546/90, λem=LP 515 nm filter set). Imaging was performed with an AxioCam digital camera (Zeiss), with AxioVision imaging software (V 4.5, Zeiss). For all images, identical camera settings and exposure times were used on comparative sample and control images. Images were processed with Photoshop (Adobe) for level and brightness using identical settings between sample and control images. For experiments conducted with IV, the cells were plated on 6-well plates with cover slips. […] Imaging was conducted on an Axioplan2 fluorescent microscope (Zeiss) and the same fields were imaged with phase contrast illumination, in the rhodamine fluorescence channel (λex=BP 450/12, λem=LP 590 nm filter set), and in the fluorescein fluorescent channel (λex=BP 546/90, λem=LP 515 nm filter set). IV was also mixed with PI and then delivered to SK-OV-3 cells, and the cells were imaged as before. In one protocol, equal amounts of IV (15.0 mM in DMSO) and PI (15.0 mM in DMSO) were combined and the resulting solution was added to cells via the mixing chamber. In a second method, PI was taken up in the ITG solution (0.748 mM) and mixed with IV (7.48 mM in DMSO) in the mixing chamber. […] The cells were imaged as before following 30 sec-4 min exposure to the drug solution.

[11] = Hepa 1-6, 4 min drug exposure, WST 48 h after, read-out: Mean IC50
[12] = SK-OV-3, 4 min drug exposure, WST 48 h after, read-out: Mean IC50

CCCCCCCCCCCCNC(=O)CCC(=CCC(=O)O)C(=O)NC(Cc1ccc(N(CCCl)CCCl)cc1)C(=O)O (centres unmarked) [V, 3,9-diaza, 2-[4-{bis(2-chloroethyl)amino}phenylmethyl], 5-(2-carboxylethylidine), 4,8-dioxo uncosanoic acid]
nuclear PI staining when delivered together with PI (Hepa 1-6): no increased levels of nuclear PI staining were observed
k [1]: (1.62 min^−1)
Half-life [1]: 28 s
Half-life ([1]; listed as C12PMMA-Melphalan (V)): 25.7 s
generalized membrane disruption [2]: neither V or methyl aniline silylated with chloro(dimethyl)octadecylsilane caused generalized membrane disruption
IC50 [3]: 304 µM
IC50 [4, 11]: 330 µM
IC50 [5, 12]: 384 µM
nuclear PI staining when delivered together with PI (SK-OV-3 cells): no increased levels of nuclear PI staining were observed
range of particle sizes [6]: 36-66 nm
size of the most abundant particle [6]: 36 nm

CCCCCCCCCCCCCCCCCC[Si](C)(C)N.CCCCCCCCCCCCCCCCCC[Si](C)(C)N.[Cl][Pt][Cl] [BDMODS-CP, Cl2Pt(NH2Si(CH3)2C18H37)2]
antiproliferative/cytotoxic effect (RLU) [7]: complete cytotoxic effect

N[C@@H](Cc1ccc(N(CCCl)CCCl)cc1)C(=O)O [Melphalan, reference compound]
IC50 ([3]; Mus musculus, MC-38): 1180 µM
viability at 1458 µM ([4]; Mus musculus, Hepa1-6, 48 h, read-out: cell viability at highest concentration tested, Hepa 1-6, 48 h, 1458 μM): 81%
IC50 ([4]; Mus musculus, Hepa1-6, read-out: Mean IC50): > 1460 µM
viability at 1458 µM ([5]; Homo sapiens, SK-OV-3, 48 h, read-out: cell viability at highest concentration tested, SK-OV-3, 48 h, 1458 μM): 70 ± 11%
IC50 ([5]; Homo sapiens, SK-OV-3, read-out: Mean IC50): > 1460 µM

CCCCCCCCCCCC(=O)Nc1ccc2c(c1)c(-c1ccccc1)[n+](CCC[N+](C)(CC)CC)c1cc(NC(=O)CCCCCCCCCCC)ccc21.[I-].[I-] [IV, 3,8-bis-undecylcarbanylamino 5-(3,3-diethyl-3-methylammoniumpropyl) 6-phenyl phenanthridinium diiodide]
increase in 90° light scattering signal intensity [8]: 15 fold
IC50 ([4]; Hepa 1-6, 4 min drug exposure, WST 24 h after, read-out: Mean IC50): 585 µM
IC50 [4, 11]: 429 µM
IC50 ([5]; SK-OV-3, 4 min drug exposure, WST 24 h after, read-out: Mean IC50): 455 µM
IC50 [5, 12]: 342 µM
Half-life ([9]; pH 7.2): non-labile
Half-life ([9]; pH 8.5): non-labile
nuclear PI staining when delivered together with PI (SK-OV-3 cells): no increased levels of nuclear PI staining detected
fluorescent signal localisation ([10]; after one hour incubation): more defined punctate signal
fluorescent signal localisation ([10]; immediately following application): diffuse signal was observed along the cell membrane
range of particle sizes [6]: 28-42 nm
size of the most abundant particle [6]: 36 nm
